Laboratory results: article PMC5218480 (PLoS ONE, 2017)

Test system: MV-4-11 cells
Experiment: Gene expression microarray analysis (Affymetrix PrimeView) and GSEA
Format: cell-based, human
Set-up: RFU PODN (11730768_x_at) / Fold change /veh PODN (11730768_x_at) / RFU LINC00158 (11744669_a_at) / Fold change /veh LINC00158 (11744669_a_at) / RFU DUSP10 (11751237_a_at) / Fold change /veh DUSP10 (11751237_a_at) / RFU ID3 (11757404_x_at) / Fold change /veh ID3 (11757404_x_at) / RFU PLEKHG5 (11737974_s_at) / Fold change /veh PLEKHG5 (11737974_s_at) / RFU LRRC4B (11730491_at) / Fold change /veh LRRC4B (11730491_at) / RFU GIMAP4 (11747438_a_at) / Fold change /veh GIMAP4 (11747438_a_at) / RFU KRT8 (11758183_x_at) / Fold change /veh KRT8 (11758183_x_at) / RFU CNN1 (11734310_a_at) / Fold change /veh CNN1 (11734310_a_at) / RFU VPS37D (11726825_at) / Fold change /veh VPS37D (11726825_at) / RFU C10orf10 (11716522_x_at) / Fold change /veh C10orf10 (11716522_x_at) / RFU KIR2DL2 /// KIR2DL4 /// KIR2DL5A /// KIR2DL5B /// KIR2DS1 /// KIR2DS2 /// KIR2DS3 /// KIR2DS4 /// KIR3DL3 /// KIR3DL3 /// KIR3DS1 (11738374_at) / Fold change /veh KIR2DL2 /// KIR2DL4 /// KIR2DL5A /// KIR2DL5B /// KIR2DS1 /// KIR2DS2 /// KIR2DS3 /// KIR2DS4 /// KIR3DL3 /// KIR3DL3 /// KIR3DS1 (11738374_at) / RFU C1QL1 (11718748_at) / Fold change /veh C1QL1 (11718748_at) / RFU TMPRSS4 (11747572_a_at) / Fold change /veh TMPRSS4 (11747572_a_at) / RFU HAMP (11756126_x_at) / Fold change /veh HAMP (11756126_x_at) / RFU RNFT2 (11725882_a_at) / Fold change /veh RNFT2 (11725882_a_at) / RFU NR4A2 (11747474_a_at) / Fold change /veh NR4A2 (11747474_a_at) / RFU ABCC12 (11746883_a_at) / Fold change /veh ABCC12 (11746883_a_at) / RFU TMEM136 (11760407_x_at) / Fold change /veh TMEM136 (11760407_x_at) / RFU CLDN22 /// WWC2 (11732394_at) / Fold change /veh CLDN22 /// WWC2 (11732394_at) / RFU HLA-DPB1 (11760878_x_at) / Fold change /veh HLA-DPB1 (11760878_x_at) / RFU SPINT1 (11716480_a_at) / Fold change /veh SPINT1 (11716480_a_at) / RFU GAP43 (11754022_s_at) / Fold change /veh GAP43 (11754022_s_at) / RFU A4GNT (11735810_at) / Fold change /veh A4GNT (11735810_at) / RFU PRB3 (11715151_x_at) / Fold change /veh PRB3 (11715151_x_at) / RFU TUBB4B (11761932_at) / Fold change /veh TUBB4B (11761932_at) / RFU CAPN14 (11732068_a_at) / Fold change /veh CAPN14 (11732068_a_at) / RFU TMCC2 (11721928_a_at) / Fold change /veh TMCC2 (11721928_a_at) / RFU IRGQ (11745062_a_at) / Fold change /veh IRGQ (11745062_a_at) / RFU FAM174B (11720279_a_at) / Fold change /veh FAM174B (11720279_a_at) / RFU TMPRSS4 (11748680_a_at) / Fold change /veh TMPRSS4 (11748680_a_at) / RFU FAM212B (11763350_a_at) / Fold change /veh FAM212B (11763350_a_at) / RFU PLEKHG5 (11743358_a_at) / Fold change /veh PLEKHG5 (11743358_a_at) / RFU ZSCAN30 (11745921_a_at) / Fold change /veh ZSCAN30 (11745921_a_at) / RFU CMKLR1 (11741424_a_at) / Fold change /veh CMKLR1 (11741424_a_at) / RFU LOC101060620 /// MAPK8IP1 (11723275_at) / Fold change /veh LOC101060620 /// MAPK8IP1 (11723275_at) / RFU SPTSSB (11747773_x_at) / Fold change /veh SPTSSB (11747773_x_at) / RFU PRSS12 (11739890_at) / Fold change /veh PRSS12 (11739890_at) / RFU BIN1 (11741810_x_at) / Fold change /veh BIN1 (11741810_x_at) / RFU WNT11 (11732464_a_at) / Fold change /veh WNT11 (11732464_a_at) / RFU C10orf10 (11716521_a_at) / Fold change /veh C10orf10 (11716521_a_at) / RFU C5orf56 (11738089_at) / Fold change /veh C5orf56 (11738089_at) / RFU CYB561 (11721691_x_at) / Fold change /veh CYB561 (11721691_x_at) / RFU ANKRD19P (11752326_a_at) / Fold change /veh ANKRD19P (11752326_a_at) / RFU OR2T12 /// OR2T33 /// OR2T8 (11738714_s_at) / Fold change /veh OR2T12 /// OR2T33 /// OR2T8 (11738714_s_at) / RFU VCAN (11748164_a_at) / Fold change /veh VCAN (11748164_a_at) / RFU JSRP1 (11732532_at) / Fold change /veh JSRP1 (11732532_at) / RFU KRTAP10-11 (11738290_x_at) / Fold change /veh KRTAP10-11 (11738290_x_at) / RFU MYO3A (11730013_a_at) / Fold change /veh MYO3A (11730013_a_at) / RFU EBF3 (11725865_a_at) / Fold change /veh EBF3 (11725865_a_at) / RFU CAMK2N1 (11719241_x_at) / Fold change /veh CAMK2N1 (11719241_x_at) / RFU C5orf56 (11738088_a_at) / Fold change /veh C5orf56 (11738088_a_at) / RFU OLFML3 (11715873_a_at) / Fold change /veh OLFML3 (11715873_a_at) / RFU LOC100653217 /// NTM (11731650_a_at) / Fold change /veh LOC100653217 /// NTM (11731650_a_at) / RFU MAPK11 (11762145_a_at) / Fold change /veh MAPK11 (11762145_a_at) / RFU FIZ1 (11724087_x_at) / Fold change /veh FIZ1 (11724087_x_at) / RFU OASL (11726364_x_at) / Fold change /veh OASL (11726364_x_at) / RFU SOX15 (11748057_x_at) / Fold change /veh SOX15 (11748057_x_at) / RFU CD79A (11719716_a_at) / Fold change /veh CD79A (11719716_a_at) / RFU HIST1H1D (11736915_at) / Fold change /veh HIST1H1D (11736915_at) / RFU CASKIN2 (11723855_a_at) / Fold change /veh CASKIN2 (11723855_a_at) / RFU LOC730098 (11760151_x_at) / Fold change /veh LOC730098 (11760151_x_at) / RFU OR4N2 (11742367_at) / Fold change /veh OR4N2 (11742367_at) / RFU PRRT2 (11749266_a_at) / Fold change /veh PRRT2 (11749266_a_at) / RFU SNX32 (11753110_a_at) / Fold change /veh SNX32 (11753110_a_at) / RFU CDHR5 (11726645_a_at) / Fold change /veh CDHR5 (11726645_a_at) / RFU RCAN1 (11760418_a_at) / Fold change /veh RCAN1 (11760418_a_at) / RFU FAM167A (11723789_a_at) / Fold change /veh FAM167A (11723789_a_at) / RFU FAM26E (11764081_at) / Fold change /veh FAM26E (11764081_at) / RFU ISYNA1 (11749810_s_at) / Fold change /veh ISYNA1 (11749810_s_at) / RFU ACY1 (11761880_at) / Fold change /veh ACY1 (11761880_at) / RFU 11764098_at / Fold change /veh 11764098_at / RFU SAMD14 (11745864_x_at) / Fold change /veh SAMD14 (11745864_x_at) / RFU NPB (11741838_a_at) / Fold change /veh NPB (11741838_a_at) / RFU TMPRSS6 (11731388_a_at) / Fold change /veh TMPRSS6 (11731388_a_at) / RFU KRTAP10-2 (11738614_at) / Fold change /veh KRTAP10-2 (11738614_at) / RFU ARHGAP8 /// PRR5-ARHGAP8 (11727945_x_at) / Fold change /veh ARHGAP8 /// PRR5-ARHGAP8 (11727945_x_at) / RFU KRTAP5-7 /// NADSYN1 (11734609_at) / Fold change /veh KRTAP5-7 /// NADSYN1 (11734609_at) / RFU RASL12 (11751679_a_at) / Fold change /veh RASL12 (11751679_a_at) / RFU CDKN2B (11736163_a_at) / Fold change /veh CDKN2B (11736163_a_at) / RFU PRF1 (11729649_at) / Fold change /veh PRF1 (11729649_at) / RFU, ZNF638 /// ZNF638-IT1 / Fold change vs veh, ZNF638 /// ZNF638-IT1 / RFU, PANK3 / Fold change vs veh, PANK3 / RFU, SH3YL1 / Fold change vs veh, SH3YL1 / RFU, ZEB2 / Fold change vs veh, ZEB2 / RFU, NRIP1 / Fold change vs veh, NRIP1 / RFU, PTTG1IP / Fold change vs veh, PTTG1IP / RFU, CAPN2 / Fold change vs veh, CAPN2 / RFU, MED14 / Fold change vs veh, MED14 / RFU, SNORA58 / Fold change vs veh, SNORA58 / RFU, C1orf63 / Fold change vs veh, C1orf63 / RFU, LRRFIP1 / Fold change vs veh, LRRFIP1 / RFU, NDUFAF7 / Fold change vs veh, NDUFAF7 / RFU, SLC12A2 / Fold change vs veh, SLC12A2 / RFU, IBTK / Fold change vs veh, IBTK / RFU, ESF1 / Fold change vs veh, ESF1 / Fold change vs veh, TMEM50B / RFU, TAOK1 / Fold change vs veh, TAOK1 / RFU, ACBD3 / Fold change vs veh, ACBD3 / RFU, TMA16 / Fold change vs veh, TMA16 / RFU, RWDD3 / Fold change vs veh, RWDD3 / RFU, BCAT1 / Fold change vs veh, BCAT1 / RFU, EDEM3 / Fold change vs veh, EDEM3 / RFU, TMEM33 / Fold change vs veh, TMEM33 / RFU, WDR75 / Fold change vs veh, WDR75 / RFU, AHCTF1 / Fold change vs veh, AHCTF1 / RFU, TFRC / Fold change vs veh, TFRC / RFU, ZDHHC17 / Fold change vs veh, ZDHHC17 / RFU, NOM1 / Fold change vs veh, NOM1 / RFU, ARL8B / Fold change vs veh, ARL8B / RFU, ZBTB11 / Fold change vs veh, ZBTB11 / RFU, TAMM41 / Fold change vs veh, TAMM41 / RFU, KIAA1704 /// LOC100996395 / Fold change vs veh, KIAA1704 /// LOC100996395 / RFU, ING1 / Fold change vs veh, ING1 / RFU, TRMT61B / Fold change vs veh, TRMT61B / RFU, FUBP3 / Fold change vs veh, FUBP3 / RFU, TP53 / Fold change vs veh, TP53 / RFU, TNKS2 / Fold change vs veh, TNKS2 / RFU, ZFP14 / Fold change vs veh, ZFP14 / RFU, ACTR2 / Fold change vs veh, ACTR2 / RFU, PPP3R1 / Fold change vs veh, PPP3R1 / RFU, PIK3R1 / Fold change vs veh, PIK3R1 / RFU, HNRNPA1 / Fold change vs veh, HNRNPA1 / RFU, RNF170 / Fold change vs veh, RNF170 / RFU, ZNF28 / Fold change vs veh, ZNF28 / RFU, RNGTT / Fold change vs veh, RNGTT / RFU, OGT / Fold change vs veh, OGT / RFU, BRD1 / Fold change vs veh, BRD1 / RFU, MARS / Fold change vs veh, MARS / RFU, ZNF655 / Fold change vs veh, ZNF655 / RFU, FAHD1 / Fold change vs veh, FAHD1 / RFU, BDP1 / Fold change vs veh, BDP1 / RFU, LRRCC1 / Fold change vs veh, LRRCC1 / RFU, ARID1A / Fold change vs veh, ARID1A / RFU, ZNF146 / Fold change vs veh, ZNF146 / RFU, ZNF330 / Fold change vs veh, ZNF330 / RFU, GPN3 / Fold change vs veh, GPN3 / RFU, C9orf123 / Fold change vs veh, C9orf123 / RFU, N4BP2L2 / Fold change vs veh, N4BP2L2 / RFU, ARFIP1 / Fold change vs veh, ARFIP1 / RFU, FAM179B / Fold change vs veh, FAM179B / RFU, BCL10 / Fold change vs veh, BCL10 / RFU, UHRF1BP1L / Fold change vs veh, UHRF1BP1L / RFU, BET1 / Fold change vs veh, BET1 / RFU, CNOT2 / Fold change vs veh, CNOT2 / RFU, ZNF268 / Fold change vs veh, ZNF268 / Fold change vs veh, ZNF507 / RFU, DGCR2 / Fold change vs veh, DGCR2 / RFU, WDSUB1 / Fold change vs veh, WDSUB1 / Fold change vs veh, HSP90B1 /// MIR3652 / RFU, ADSS / Fold change vs veh, ADSS / RFU, GK / Fold change vs veh, GK / RFU, ZNF148 / Fold change vs veh, ZNF148 / RFU, TAF9 / Fold change vs veh, TAF9 / RFU, SLC1A5 / Fold change vs veh, SLC1A5 / RFU, SLMO2 / Fold change vs veh, SLMO2 / RFU, ABCC4 / Fold change vs veh, ABCC4 / RFU, LOC101060439 /// RAP1B / Fold change vs veh, LOC101060439 /// RAP1B / RFU, RFX7 / Fold change vs veh, RFX7 / RFU, GTPBP10 / Fold change vs veh, GTPBP10 / RFU, CNEP1R1 / Fold change vs veh, CNEP1R1 / RFU, BIVM-ERCC5 /// ERCC5 / Fold change vs veh, BIVM-ERCC5 /// ERCC5 / RFU, ILF3 / Fold change vs veh, ILF3 / RFU 11762660_at / Fold change /veh 11762660_at / RFU VCAN (11757783_s_at) / Fold change /veh VCAN (11757783_s_at) / RFU DDX43 (11728927_at) / Fold change /veh DDX43 (11728927_at) / RFU KRT8 (11758188_x_at) / Fold change /veh KRT8 (11758188_x_at) / RFU NKD1 (11759106_at) / Fold change /veh NKD1 (11759106_at) / RFU SRD5A1 (11742802_a_at) / Fold change /veh SRD5A1 (11742802_a_at) / RFU TPSAB1 /// TPSB2 (11721975_s_at) / Fold change /veh TPSAB1 /// TPSB2 (11721975_s_at) / RFU GSTM3 (11746129_a_at) / Fold change /veh GSTM3 (11746129_a_at) / RFU IL23R (11737362_x_at) / Fold change /veh IL23R (11737362_x_at) / RFU TMEM51 (11727254_a_at) / Fold change /veh TMEM51 (11727254_a_at) / RFU PIWIL2 (11732686_x_at) / Fold change /veh PIWIL2 (11732686_x_at) / RFU ORM1 (11744905_x_at) / Fold change /veh ORM1 (11744905_x_at) / RFU CCDC152 (11743942_at) / Fold change /veh CCDC152 (11743942_at) / RFU ECM1 (11717891_a_at) / Fold change /veh ECM1 (11717891_a_at) / RFU IL23R (11748794_a_at) / Fold change /veh IL23R (11748794_a_at) / RFU TNFAIP8L3 (11732012_x_at) / Fold change /veh TNFAIP8L3 (11732012_x_at) / RFU MBOAT4 (11741988_at) / Fold change /veh MBOAT4 (11741988_at) / RFU 11764193_at / Fold change /veh 11764193_at / RFU TMEM53 (11763286_at) / Fold change /veh TMEM53 (11763286_at) / RFU MAGEB2 (11727129_at) / Fold change /veh MAGEB2 (11727129_at) / RFU TMEM200A (11744735_a_at) / Fold change /veh TMEM200A (11744735_a_at) / RFU CCDC152 (11751479_a_at) / Fold change /veh CCDC152 (11751479_a_at) / RFU FAM211A (11726209_a_at) / Fold change /veh FAM211A (11726209_a_at) / RFU RGS16 (11746705_a_at) / Fold change /veh RGS16 (11746705_a_at) / RFU VCAN (11755009_s_at) / Fold change /veh VCAN (11755009_s_at) / RFU RHOB (11743442_s_at) / Fold change /veh RHOB (11743442_s_at) / RFU RGS16 (11720943_a_at) / Fold change /veh RGS16 (11720943_a_at) / RFU RGS16 (11720944_at) / Fold change /veh RGS16 (11720944_at) / RFU, VPS4B / Fold change vs veh, VPS4B / RFU, CREB1 / Fold change vs veh, CREB1 / RFU, DNAJC13 / Fold change vs veh, DNAJC13 / RFU, GNAQ / Fold change vs veh, GNAQ / RFU, CDK5R1 / Fold change vs veh, CDK5R1 / RFU, ZRANB3 / Fold change vs veh, ZRANB3 / RFU, CUL4A / Fold change vs veh, CUL4A / RFU, CCNY / Fold change vs veh, CCNY / RFU, UFL1 / Fold change vs veh, UFL1 / RFU, COG3 / Fold change vs veh, COG3 / RFU, DIAPH2 / Fold change vs veh, DIAPH2 / RFU, SKA2 / Fold change vs veh, SKA2 / RFU, AFF3 / Fold change vs veh, AFF3 / RFU, LMF1 / Fold change vs veh, LMF1 / RFU, IPO11 / Fold change vs veh, IPO11 / RFU, DFFB / Fold change vs veh, DFFB / RFU, FOXP1 / Fold change vs veh, FOXP1 / RFU, CARD8 / Fold change vs veh, CARD8 / RFU, STRN3 / Fold change vs veh, STRN3 / RFU, ADK / Fold change vs veh, ADK / RFU, RASSF2 / Fold change vs veh, RASSF2 / RFU, WIPF1 / Fold change vs veh, WIPF1 / RFU, LARP1B / Fold change vs veh, LARP1B / RFU, RASA1 / Fold change vs veh, RASA1 / RFU, RB1 / Fold change vs veh, RB1 / RFU, PPFIA1 / Fold change vs veh, PPFIA1 / RFU, MAT2A / Fold change vs veh, MAT2A / RFU, CCT5 / Fold change vs veh, CCT5 / RFU, WDR92 / Fold change vs veh, WDR92 / RFU, CUX1 / Fold change vs veh, CUX1 / RFU, TTC7A / Fold change vs veh, TTC7A / RFU, TMEM135 / Fold change vs veh, TMEM135 / RFU, DEPTOR / Fold change vs veh, DEPTOR / RFU, CPM / Fold change vs veh, CPM / RFU, DNAJB6 / Fold change vs veh, DNAJB6 / RFU, CACNA2D3 / Fold change vs veh, CACNA2D3 / RFU, DTX4 / Fold change vs veh, DTX4 / RFU, TFCP2 / Fold change vs veh, TFCP2 / RFU, GMCL1 /// GMCL1P1 / Fold change vs veh, GMCL1 /// GMCL1P1 / RFU, AEBP2 / Fold change vs veh, AEBP2 / RFU, SNHG1 /// SNORD22 /// SNORD25 /// SNORD26 /// SNORD27 /// SNORD28 /// SNORD29 /// SNORD31 / Fold change vs veh, SNHG1 /// SNORD22 /// SNORD25 /// SNORD26 /// SNORD27 /// SNORD28 /// SNORD29 /// SNORD31 / Fold change (Aza/veh), C12orf56 (ProbeSet 11735607_a_at) / Fold change (ACY-1035/veh), C12orf56 (ProbeSet 11735607_a_at) / Fold change (Aza/veh), FGFR1OP (ProbeSet 11751329_s_at) / Fold change (ACY-1035/veh), FGFR1OP (ProbeSet 11751329_s_at) / Fold change (Aza/veh), VPS36 (ProbeSet 11739960_a_at) / Fold change (ACY-1035/veh), VPS36 (ProbeSet 11739960_a_at) / RFU SYPL1 (11715823_x_at) / Fold change /veh SYPL1 (11715823_x_at) / RFU IGFBP7 (11715501_s_at) / Fold change /veh IGFBP7 (11715501_s_at) / RFU REEP3 (11722064_at) / Fold change /veh REEP3 (11722064_at) / RFU IGLL1 (11728026_x_at) / Fold change /veh IGLL1 (11728026_x_at): dose or concentration left out as unconfirmed
Conditions: MV-4-11 cells, 48 hours

`Nc1ccc(-c2cccs2)cc1NC(=O)c1ccc2c(c1)cc(C1CC1)n2CCN1CCOCC1` [ACY-1035] was tested, and the “Fold change /veh 11764098_at” value was 1.17.
